Assay: SO2 generation of Na2S2O5 in an open environment
Format: physicochemical
Description: FIG. 6A and FIG. 6B show the results of a test that was performed to establish how Na2S2O5 reacts with the environment, and the effect of changes in relative humidity. 0.1 g of Na2S2O5 on sampling “boats” were placed on top of a counter; i.e., in an “open” environment. The concentration of SO2 gas (in parts per million, ppm) in the air at about 2.5 cm (about 1″) above the Na2S2O5 was measured daily for more than 50 days of testing. The relative humidity was also measured for each day of testing.

average SO2 concentration generated (0.1 grams of Na2S2O5, open environment, air about 2.5 cm above the sample, up to 50 days): 0.5 ppm
duration of continuous SO2 generation (conclusion from the several tests): more than 50 days
SMILES: O=S([O-])S(=O)(=O)[O-].[Na+].[Na+] [Na2S2O5, sodium metabisulfite]

Source: patent US20150017380A1, “ABSORBENT FOOD PAD HAVING DISCRETE AIRFLOW PASSAGES” (Paper-Pak Industries, priority 2013, published 2015)
